From ChEMBL document CHEMBL5532655, “Discovery of (R)-4-(8-methoxy-2-methyl-1-(1-phenylethy)-1H-imidazo[4,5-c]quinnolin-7-yl)-3,5-dimethylisoxazole as a potent and selective BET inhibitor for treatment of acute myeloid leukemia (AML) guided by FEP calculation” (Eur J Med Chem, 2024) come the findings set out here.

Structures are written as SMILES. Calls of active or inactive are those of the source. The calls are words filed in the database; no cut-off is given here.

Data set [1] is described as follows: Volume of distribution at steady state in Sprague-Dawley rat at 1 mg/kg,iv administration measured upto 24 hrs by LC-MS/MS analysis. The format is ADME, organism-based. To be noted: in vivo, read-out: Vdss.
Data set [2] is described as follows: Clearance in Sprague-Dawley rat at 1 mg/kg,iv administration measured upto 24 hrs by LC-MS/MS analysis. The class given is ADME, organism-based. To be noted: in vivo.
Data set [3] can be described thus: AUC (0-infinity) in Sprague-Dawley rat at 1 mg/kg,iv administration measured upto 24 hrs by LC-MS/MS analysis. To be noted: in vivo. The class given is ADME, organism-based.
Data set [4] in a line: Cmax in Sprague-Dawley rat at 10 mg/kg,po administration measured upto 24 hrs by LC-MS/MS analysis. The format is ADME, organism-based. The following applies: in vivo.
Data set [5] can be described thus: MRTinfinity in Sprague-Dawley rat at 10 mg/kg,po administration measured upto 24 hrs by LC-MS/MS analysis. The format is ADME, organism-based. The following applies: in vivo.
Data set [6] is described as follows: AUC (0-t) in Sprague-Dawley rat at 10 mg/kg,po administration measured upto 24 hrs by LC-MS/MS analysis. The format is ADME, organism-based. To be noted: in vivo.
Data set [7] is described as follows: AUC (0-infinity) in Sprague-Dawley rat at 10 mg/kg,po administration measured upto 24 hrs by LC-MS/MS analysis. The format is ADME, organism-based. To be noted: in vivo.
Data set [8] is described as follows: Apparent volume of distribution during terminal phase in Sprague-Dawley rat at 10 mg/kg,po administration measured upto 24 hrs by LC-MS/MS analysis. The class given is ADME, organism-based. The following applies: in vivo, read-out: Vz/F.
The nature of data set [9]: Tmax in Sprague-Dawley rat at 10 mg/kg,po administration measured upto 24 hrs by LC-MS/MS analysis. The class given is ADME, organism-based. To be noted: in vivo.
Data set [10] concerns MV4-11. Nature of the data set: Induction of apoptosis in human MV4-11 cells assessed as viable cells at 2.5 uM incubated for 24 hrs by annexin V-FITC/PI staining based flow cytometric analysis (reference value: 97%). The format is functional. The following applies: Homo sapiens, MV4-11, read-out: Activity. In general terms: In flow cytometry, cells or beads pass a laser one at a time.

Data set [11] deals with MV4-11. Nature of the data set: Induction of apoptosis in human MV4-11 cells assessed as viable cells at 10 uM incubated for 24 hrs by annexin V-FITC/PI staining based flow cytometric analysis (reference value: 97%). To be noted: Homo sapiens, MV4-11, read-out: Activity. The class given is functional.
For data set [12], the system named is MV4-11. Nature of the data set: Induction of apoptosis in human MV4-11 cells assessed as early apoptotic cells at 5 uM incubated for 24 hrs by annexin V-FITC/PI staining based flow cytometric analysis (reference value: 0%). The class given is functional.
The subject of data set [13] is MV4-11. Nature of the data set: Induction of apoptosis in human MV4-11 cells assessed as early apoptotic cells at 10 uM incubated for 24 hrs by annexin V-FITC/PI staining based flow cytometric analysis (reference value: 0%). The class given is functional.
The subject of data set [14] is MV4-11. Kind of data set: Induction of apoptosis in human MV4-11 cells assessed as late apoptotic cells at 1.25 uM incubated for 24 hrs by annexin V-FITC/PI staining based flow cytometric analysis (reference value: 0.04 %). The format is functional.
Data set [15] relates to MV4-11. Kind of data set: Induction of apoptosis in human MV4-11 cells assessed as necrotic cells at 0.625 uM incubated for 24 hrs by annexin V-FITC/PI staining based flow cytometric analysis (reference value: 2.35 %). The class given is functional.
Data set [16] has as its system MV4-11. Nature of the data set: Induction of apoptosis in human MV4-11 cells assessed as necrotic cells at 2.5 uM incubated for 24 hrs by annexin V-FITC/PI staining based flow cytometric analysis (reference value: 2.35 %). The format is functional.
The test system of data set [17] is MV4-11. Kind of data set: Induction of apoptosis in human MV4-11 cells assessed as necrotic cells at 5 uM incubated for 24 hrs by annexin V-FITC/PI staining based flow cytometric analysis (reference value: 2.35 %). The class given is functional.
Data set [18] deals with MV4-11. Kind of data set: Induction of cell cycle arrest in human MV4-11 cells assessed as accumulation of cells at G0/G1 phase at 0.625 uM incubated for 24 hrs by propidium iodide staining flow cytometric analysis (reference value: 37.64 %). The class given is functional.
Data set [19] deals with MV4-11. Kind of data set: Induction of cell cycle arrest in human MV4-11 cells assessed as accumulation of cells at G0/G1 phase at 2.5 uM incubated for 24 hrs by propidium iodide staining flow cytometric analysis (reference value: 37.64 %). The format is functional.
Data set [20] has as its system MV4-11. Kind of data set: Induction of cell cycle arrest in human MV4-11 cells assessed as accumulation of cells at G2/M phase at 0.3125 uM incubated for 24 hrs by propidium iodide staining flow cytometric analysis (reference value: 18 %). The format is functional.
Data set [21] deals with MV4-11. Kind of data set: Induction of cell cycle arrest in human MV4-11 cells assessed as accumulation of cells at S phase at 1.25 uM incubated for 24 hrs by propidium iodide staining flow cytometric analysis (reference value: 43.94 %). The class given is functional.
Data set [22] deals with MV4-11. Kind of data set: Induction of apoptosis in human MV4-11 cells assessed as downregulation of c-Myc expression incubated for 48 hrs by Western blotting analysis. The class given is functional, cell-based. Background: Immunoblotting shows a protein as a band on a membrane.
Data set [23] has as its system MV4-11. Nature of the data set: Induction of apoptosis in human MV4-11 cells assessed as downregulation of CDK6 expression at 0.3125 to 2.5 uM incubated for 48 hrs by Western blotting analysis. The class given is functional, cell-based. The following applies: dose 0.3125-2.5 µM.
Data set [24] has as its system MV4-11. Nature of the data set: Induction of apoptosis in human MV4-11 cells assessed as upregulation of p21 expression at 0.3125 to 2.5 uM incubated for 48 hrs by Western blotting analysis. The following applies: dose 0.3125-2.5 µM. The format is functional, cell-based.
In data set [25] the test system is MV4-11. Kind of data set: Induction of apoptosis in human MV4-11 cells assessed as upregulation of PARP expression at 0.3125 to 2.5 uM incubated for 48 hrs by Western blotting analysis. The format is functional, cell-based. To be noted: dose 0.3125-2.5 µM.
Data set [26] has as its system MV4-11. Nature of the data set: Induction of apoptosis in human MV4-11 cells assessed as downregulation of CDK6 expression at 500 nM hrs by Western blotting analysis. The class given is functional, cell-based. To be noted: TDE = time-dependent effect.
In data set [27] the test system is MV4-11. Kind of data set: Induction of apoptosis in human MV4-11 cells assessed as upregulation of p21 expression at 500 nM hrs by Western blotting analysis. The class given is functional, cell-based. To be noted: TDE = time-dependent effect.
Data set [28] deals with T1, Bromodomain-containing protein 7 (Homo sapiens) (UniProt Q9NPI1).
T1 sequence (whole entry): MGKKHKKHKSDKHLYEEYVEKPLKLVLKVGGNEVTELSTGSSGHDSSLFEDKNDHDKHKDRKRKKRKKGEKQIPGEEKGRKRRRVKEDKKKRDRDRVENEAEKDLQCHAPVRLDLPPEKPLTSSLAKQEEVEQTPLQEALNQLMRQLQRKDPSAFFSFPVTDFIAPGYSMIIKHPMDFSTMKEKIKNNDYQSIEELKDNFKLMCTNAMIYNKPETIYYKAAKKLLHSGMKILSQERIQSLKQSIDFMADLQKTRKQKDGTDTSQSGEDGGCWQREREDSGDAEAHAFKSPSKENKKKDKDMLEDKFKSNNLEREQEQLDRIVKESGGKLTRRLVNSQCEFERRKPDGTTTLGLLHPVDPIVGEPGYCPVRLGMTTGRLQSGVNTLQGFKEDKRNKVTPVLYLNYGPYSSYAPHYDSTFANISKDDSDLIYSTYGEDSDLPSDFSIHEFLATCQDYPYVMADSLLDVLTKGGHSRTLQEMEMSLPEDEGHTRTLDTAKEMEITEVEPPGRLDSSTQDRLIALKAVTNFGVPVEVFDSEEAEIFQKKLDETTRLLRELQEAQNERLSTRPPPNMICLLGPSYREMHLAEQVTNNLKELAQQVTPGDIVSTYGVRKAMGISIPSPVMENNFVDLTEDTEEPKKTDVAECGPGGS
Kind of data set: Binding affinity to BRD7 (unknown origin) using biotinylated histone peptide H4 as substrate at 1 uM incubated for 2 hrs by AlphaScreen assay relative to control.

Data set [29] deals with MV4-11. Nature of the data set: cells. The following applies: Homo sapiens, MV4-11, 48 h.
Description: Antiproliferative activity against human MV4-11 cells assessed as inhibition of cell growth incubated for 48 hrs by MTT assay

The term clearance denotes the rate of elimination divided by the concentration. For orientation: AUC(0-inf) means the area under the concentration-time curve extrapolated to infinity. A low value points to less exposure. What is called Cmax is the peak of the concentration-time curve. Usually MRT inf stands for the average time that molecules of a dose stay in the body. In general, AUC(0-t) refers to exposure summed from dosing to a finite time, without extrapolation to infinity. Higher therefore signals more exposure. One may read the Tmax as the time from dosing to the highest level. What is called IC50 is the point on the concentration scale where inhibition reaches its midpoint. Lower therefore signals greater potency in that assay. For the molecule `COc1cc2c(cc1-c1c(C)noc1C)ncc1nc(C)n([C@H](C)c3ccccc3)c12`, in [1], the Vd is 0.6 L/kg. Further, in [2], the clearance was found to be 12.1 mL/min/kg. For the same molecule, the AUC(0-inf) in [3] came out at 1400 ng·h/mL; in [7], 16000 ng·h/mL. Moreover, in data set [4], the Cmax is 1780 ng/mL. The same molecule had an MRT inf in data set [5] of 5.86 h. The same molecule showed an AUC(0-t) at 24 h in data set [6] of 16000 ng·h/mL. Also, in data set [8], the Vd/F was 2.39 L/kg. In addition, the Tmax in [9] came out at 1 h. Also, the viability at 2.5 µM with MV4-11 [10] came to 81.7%. In addition, the viability at 10 µM with MV4-11 [11] came out at 73.5%. The Activity is on record as 8.46% in the data set with MV4-11 [12]; 10.04% with MV4-11 [13]; 6.32% in the data set with MV4-11 [14]; 6% with MV4-11 [15]; 8% with MV4-11 [16]; 8% with MV4-11 [17]. The Activity in the data set on MV4-11 [18] was 61.2%; in the data set on MV4-11 [19], 72.14%; with MV4-11 [20] it was 6.33%; in the data set on MV4-11 [21], 23.31%; in the data set on MV4-11 [22], “Dose-Dependent Effect”; with MV4-11 [26], “Tde”. For the same molecule, the Activity result was “Tde” with MV4-11 [27] and below 30% in data set [28]. In addition, the outcome in the data set on MV4-11 [23], in the data set with MV4-11 [24] and in the data set with MV4-11 [25] was Active. Further, the midpoint of inhibition with MV4-11 [29], the IC50, lay at 190 nM.
`COc1cc2c(cc1-c1c(C)n[nH]c1C)ncc1nc(C)n([C@H](C)c3ccccc3)c12` came in with an Activity in data set [28] below 30%. This molecule had an IC50 in the data set on MV4-11 [29] of 800 nM.
